We go through two molecules from publication PMC5050400 (Current Neuropharmacology, 2016).

Assay [1] has as its target T1, α1β3(M286W) GABAA receptor (Homo sapiens, UniProt P14867+P28472, M311W).
T1 sequence (P28472 26-473 M311W): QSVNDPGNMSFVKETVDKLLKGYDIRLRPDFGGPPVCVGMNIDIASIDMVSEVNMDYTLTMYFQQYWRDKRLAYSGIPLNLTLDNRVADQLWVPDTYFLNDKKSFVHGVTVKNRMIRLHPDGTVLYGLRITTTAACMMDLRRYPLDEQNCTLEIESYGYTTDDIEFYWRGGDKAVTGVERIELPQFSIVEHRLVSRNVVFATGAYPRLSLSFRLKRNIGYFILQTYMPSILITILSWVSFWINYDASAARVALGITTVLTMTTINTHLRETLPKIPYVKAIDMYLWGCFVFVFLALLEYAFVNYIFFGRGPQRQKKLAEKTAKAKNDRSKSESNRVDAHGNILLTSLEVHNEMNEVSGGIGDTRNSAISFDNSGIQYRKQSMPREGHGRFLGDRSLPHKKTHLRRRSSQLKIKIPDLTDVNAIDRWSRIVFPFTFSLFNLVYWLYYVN
T1 sequence (P14867 28-456): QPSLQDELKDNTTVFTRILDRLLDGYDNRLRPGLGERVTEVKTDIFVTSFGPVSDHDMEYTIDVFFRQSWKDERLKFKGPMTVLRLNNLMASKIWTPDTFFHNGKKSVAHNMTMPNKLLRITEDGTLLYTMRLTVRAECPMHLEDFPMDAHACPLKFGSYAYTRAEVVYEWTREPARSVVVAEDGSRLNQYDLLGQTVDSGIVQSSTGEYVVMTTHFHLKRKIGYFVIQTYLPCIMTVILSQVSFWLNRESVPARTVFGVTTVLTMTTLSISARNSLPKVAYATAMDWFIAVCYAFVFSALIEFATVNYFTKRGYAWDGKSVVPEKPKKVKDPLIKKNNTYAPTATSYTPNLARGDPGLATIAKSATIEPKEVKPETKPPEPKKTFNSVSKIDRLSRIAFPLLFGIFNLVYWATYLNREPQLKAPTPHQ
The assay is described as follows: Two-electrode voltage clamp activation of α1β3. The format is cell-based. The conditions noted are these: for Po,max^est / nH / d: α1β3(M286W); for d: KO/KC, MWC fit. (In general: Two-electrode voltage clamp is typically applied to oocytes expressing channels or transporters.)

Assay [2] addresses T2, α1β3(M286W+F221W) GABAA receptor (Homo sapiens, UniProt P14867+P28472, F246W/M311W).
T2 sequence (P28472 26-473 F246W/M311W): T1 sequence (P28472 26-473 M311W) with F221W
T2 sequence (P14867 28-456): T1 sequence (P14867 28-456)
Kind of assay: Two-electrode voltage clamp activation of α1β3. It is filed as cell-based. The conditions noted are these: for Po,max^est / nH / d: α1β3(M286W+F221W); for d: KO/KC, MWC fit.

The target in assay [3] is T3, α1β3(M286W+Q224W) GABAA receptor (Homo sapiens, UniProt P14867+P28472, M311W/Q249W).
T3 sequence (P28472 26-473 Q249W/M311W): T1 sequence (P28472 26-473 M311W) with Q224W
T3 sequence (P14867 28-456): T1 sequence (P14867 28-456)
Kind of assay: cell-based.

Assay [4] deals with T4, α1β3(Q224W) GABAA receptor (Homo sapiens, UniProt P14867+P28472, Q249W).
T4 sequence (P28472 26-473 Q249W): T1 sequence (P28472 26-473 M311W) with Q224W, W286M
T4 sequence (P14867 28-456): T1 sequence (P14867 28-456)
Kind of assay: Two-electrode voltage clamp activation of α1β3. It is filed as cell-based. The conditions noted are these: for Po,max^est / nH / d: α1β3(Q224W); for d: KO/KC, MWC fit.

Residue numbers refer to the chain shown, from its start. Read-outs that look alike come from different tables or passages of the source.

Consider `NCCCC(=O)O` [GABA, γ-aminobutyric acid], for which the “Po,max^est” value in assay [1] worked out at 0.94±0.01; in assay [2], 1; in assay [3] (α1β3(M286W+Q224W)) it was 0.87±0.02; in assay [4], 0.24±0.03. The nH in assay [1] was 1.8±0.2; in assay [2], 1.1±0.1; in assay [3] (α1β3(M286W+Q224W)), 1.1±0.1; in assay [4], 1.0±0.1. Moreover, the d in assay [1] worked out at 0.005±0.002; in assay [2], 0.07±0.05; in assay [3] (α1β3(M286W+Q224W), KO/KC, MWC fit), 0.04±0.004; in assay [4], 0.06±0.01.

As to `CC(C)c1cccc(C(C)C)c1O` [Propofol, 2,6-diisopropylphenol], in assay [1], the midpoint of the response, the EC50, lay at 14 ± 0.7 µM; the Kd (as a rule, the concentration at which binding is half-saturated) was 6 ± 1.4 µM; the “Po,max^est” value is recorded as 0.33±0.04; the nH is given as 2.8±0.3. The d in assay [1] stood at 0.27±0.01. For the same molecule, in assay [2], it took 6.6 ± 0.8 µM to reach a half-maximal effect (EC50), binding was put at a Kd of 5.7 ± 1.6 µM, the “Po,max^est” value stood at 0.60±0.04 and the nH was found to be 1.1±0.1. Moreover, the d in assay [2] was determined as 0.84±0.01. In assay [3], a half-maximal effect (EC50) was put at 69 ± 9 µM; the affinity, expressed as Kd, was 61 ± 14 µM; the “Po,max^est” value is on record as 0.11±0.01; the d amounted to 0.58±0.01. In addition, the nH in assay [3] is listed as 1.9±0.1. Besides, in assay [4], a half-maximal response (EC50) required 50 ± 2 µM, the Kd was determined as 336 ± 435 µM, the “Po,max^est” value is reported as 1 and the nH is given as 2.9±0.6. In assay [4], this molecule had a d of 0.04±0.05.
